# Measurements reported in ChEMBL document CHEMBL1133579, “Derivation of pharmacophore and CoMFA models for leukotriene D(4) receptor antagonists of the quinolinyl(bridged)aryl series” (J Med Chem, 2000).
# Columns and labels:
# [1] = molecular target: T1, Cysteinyl leukotriene receptor 1 (Cavia porcellus, UniProt Q2NNR5); assay: In vitro binding affinity towards Cysteinyl leukotriene D4 receptor by using [3H]LTD4 binding assay in guinea pig lung membranes; type: cell membranes, Membrane
# T1 sequence (Q2NNR5 whole entry): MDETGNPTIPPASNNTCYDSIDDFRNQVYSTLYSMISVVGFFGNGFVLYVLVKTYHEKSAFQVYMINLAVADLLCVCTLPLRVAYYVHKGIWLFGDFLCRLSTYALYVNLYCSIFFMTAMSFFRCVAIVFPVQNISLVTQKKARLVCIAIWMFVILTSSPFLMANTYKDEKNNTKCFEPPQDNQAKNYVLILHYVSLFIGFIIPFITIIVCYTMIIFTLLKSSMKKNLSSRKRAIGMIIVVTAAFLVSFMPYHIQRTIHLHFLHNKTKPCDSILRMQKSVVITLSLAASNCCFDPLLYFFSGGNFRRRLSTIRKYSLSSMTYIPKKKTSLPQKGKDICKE
# [2] = molecular target: T1, Cysteinyl leukotriene receptor 1; assay: In vitro binding affinity towards Cysteinyl leukotriene D4 receptor by using [3H]LTD4 binding assay in guinea pig lung membranes; IA means inactive; type: cell membranes
Structure (SMILES),Ki [1],Ki [2]
O=C(Cc1ccc(OCCCCc2ccccc2)cc1)Nc1ccc(CCCc2nnn[nH]2)cc1,2590 nM,
O=C(Cc1ccc(OCc2ccc3ccccc3n2)cc1)Nc1ccc(CCCc2nnn[nH]2)cc1,88 nM,
O=C(O)c1ccc(CCNC(=O)C2CCc3ccc(OCc4ccc5ccccc5n4)cc3O2)cc1 (stereo not given),237 nM,
Cn1cc(CC(=O)NCc2ccc(-c3nn[nH]n3)cc2)c2cc(OCc3ccc4ccccc4n3)ccc21,1050 nM,
O=C(Nc1cccc2c(=O)cc(C(=O)O)oc12)c1ccc(OCc2ccc3ccccc3n2)cc1,168 nM,
CC(C(=O)NCc1cccc(-c2nnn[nH]2)c1)c1ccc2cc(OCc3ccc4ccccc4n3)ccc2c1 (stereo not given),29 nM,
Cc1ccccc1S(=O)(=O)NC(=O)c1ccc(CCNC(=O)c2ccc3ccc(OCc4ccc5ccccc5n4)cc3c2)cc1,15 nM,
O=C(O)c1ccc(CCNC(=O)c2ccc3ccc(OCc4ccc5ccccc5c4)cc3c2)cc1,,Not Active
O=C(Nc1ccc(CCCc2nnn[nH]2)cc1)c1ccc(OCc2ccc3ccccc3n2)cc1,595 nM,
CN(C(=O)Cc1ccc(OCc2ccc3ccccc3n2)cc1)c1ccc(CCCC(=O)O)cc1,297 nM,
O=C(O)c1ccc(CCNC(=O)c2ccc3ccc(OCc4ccc(-c5ccccc5)cn4)cc3c2)cc1,79 nM,
Cc1cn(Cc2ccc3ccccc3n2)c2cc(C(=O)NCCc3ccc(C(=O)O)cc3)ccc12,,Not Active
O=C(O)CCCc1ccc(NC(=O)Cc2ccc(OCc3ccc4ccccc4n3)cc2)cc1,7.3 nM,
CC(C(=O)NCCCCC(=O)O)c1ccc2cc(OCc3ccc4ccccc4n3)ccc2c1 (stereo not given),360 nM,
O=C(O)c1ccc(CCNC(=O)c2cc(=O)c3ccc(OCc4ccc5ccccc5n4)cc3o2)cc1,,Not Active
O=C(O)CCCc1ccc(NC(=O)Cc2ccc(OCc3ccc4ccc(Cl)cc4n3)cc2)cc1,4.8 nM,
O=C(Cc1ccc(OCc2ccc3ccccc3n2)cc1)Nc1ccc(Cc2nnn[nH]2)cc1,108 nM,
CC(C(=O)NCc1ccc(CC(=O)O)cc1)c1ccc2cc(OCc3ccc4ccccc4n3)ccc2c1 (stereo not given),134 nM,
CC(C(=O)Nc1ccc(CCCC(=O)O)cc1)c1ccc2cc(OCc3ccc4ccccc4n3)ccc2c1 (stereo not given),38 nM,
O=C(O)CCCc1ccc(NC(=O)Cc2cccc(OCc3ccc4ccccc4n3)c2)cc1,40 nM,

# The remaining lines, values ahead:
Ki [1],Ki [2],Structure (SMILES)
4 nM,,O=C(O)c1ccc(OCC(O)COc2ccc3ccc(OCc4ccc5ccccc5n4)cc3c2)cc1 (stereo not given)
118 nM,,CC(C(=O)Nc1ccc(C(=O)O)cc1)c1ccc2cc(OCc3ccc4ccccc4n3)ccc2c1 (stereo not given)
30 nM,,O=C(Nc1cccc2c(=O)cc(C(=O)O)oc12)c1ccc2ccc(OCc3ccc4ccccc4n3)cc2c1
5.6 nM,,O=C(O)c1ccc(CCCOc2ccc3ccc(OCc4ccc5ccccc5n4)cc3c2)cc1
1.05 nM,,O=C(O)c1ccc(CCNC(=O)c2ccc3ccc(OCc4ccc5ccccc5n4)cc3c2)cc1
15 nM,,O=C(O)c1ccc(Cc2noc(-c3ccc4ccc(OCc5ccc6ccccc6n5)cc4c3)n2)cc1
2.6 nM,,O=C(O)c1ccc(CCNS(=O)(=O)c2ccc3ccc(OCc4ccc5ccccc5n4)cc3c2)cc1
2.4 nM,,O=C(O)Cc1ccc(CCNS(=O)(=O)c2ccc3ccc(OCc4ccc5ccccc5n4)cc3c2)cc1
70 nM,,CC(C(=O)NCc1ccc(C(=O)O)cc1)c1ccc2cc(OCc3ccc4ccccc4n3)ccc2c1 (stereo not given)
30 nM,,O=C(O)c1ccc2c(ccn2Cc2ccc3ccc(OCc4ccc5ccccc5n4)cc3c2)c1
